# Assay results published in patent US10280184B2, “Heterocyclic kinase inhibitors” (AbbVie Inc., priority 2014, dated 2019).
# Biological target: BTK (Homo sapiens (Human), UniProt Q06187)
# Assay: In vitro BTK kinase activity measured by trFRET
# Assay type: biochemical
# Details: recombinant human catalytic domain (aa 393-659), 0.01 mM ATP; read-out: Btk enzyme IC50
# Method: In Vitro BTK Kinase Activity Measured by Time-Resolved Fluorescence Resonance Energy Transfer (trFRET)
# (§1) The in-house BTK corresponds to recombinant human catalytic domain (aa 393-659), which was expressed in SF9 cells with an N-terminal his tag and purified by immobilized metal affinity chromatography. BTK was mixed with peptide substrate (biotin-TYR1, Sequence: Biotin-(Ahx)-GAEEEIYAAFFA-COOH, 0.4 μM final) at varying inhibitor concentrations in reaction buffer: 50 mM MOPSO pH 6.5, 10 mM MgCl2, 2 mM MnCl2, 2.5 mM DTT, 0.01% BSA, 0.1 mM Na3VO4 and 0.01 mM ATP. After about 60 min incubation at rt, the reaction was quenched by addition of EDTA (final concentration: 100 mM) and developed by addition of detection reagents (final approximate concentrations: 30 mM HEPES pH 7.0, 0.06% BSA, 0.006% Tween-20, 0.24 M KF, 80 ng/mL PT66K (europium labeled anti-phosphotyrosine antibody cat #61T66KLB Cisbio, Bedford, Mass.) and 0.6 μg/mL SAXL (Phycolink streptavidin-allophycocyanin acceptor, cat #PJ25S, Prozyme, San Leandro, Calif.). The developed reaction was incubated in the dark for about 60 min at rt, then read via a time-resolved fluorescence detector (Rubystar, BMG) using a 337 nm laser for excitation and monitoring emission wavelength at 665 nm. Within the linear range of the assay, the observed signal at 665 nm was directly related to phosphorylated product and can be used to calculate the IC50 values.
# Sequence of BTK (Q06187 393-659): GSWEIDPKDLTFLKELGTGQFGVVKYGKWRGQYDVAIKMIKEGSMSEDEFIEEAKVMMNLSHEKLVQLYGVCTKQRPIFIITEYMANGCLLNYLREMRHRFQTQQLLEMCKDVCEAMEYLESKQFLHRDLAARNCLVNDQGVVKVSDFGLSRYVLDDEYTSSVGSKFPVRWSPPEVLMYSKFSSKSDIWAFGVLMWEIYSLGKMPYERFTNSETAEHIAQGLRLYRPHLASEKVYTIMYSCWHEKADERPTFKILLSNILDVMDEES
row,IC50,SMILES
1,1000 to 50000 nM,"C=CC(=O)N1CCC(c2cn3ncnc3c(NC)n2)C1 (centres unmarked) [F.1.16, 1-(3-(8-(methylamino)-[1,2,4]triazolo[1,5-a]pyrazin-6-yl)pyrrolidin-1-yl)prop-2-en-1-one]"
2,100 to 1000 nM,"C=CC(=O)N1CCC(c2cn3ncnc3c(Nc3ccc(N4CCOCC4)nc3)n2)C1 (centres unmarked) [F.1.19, 1-(3-(8-((6-morpholinopyridin-3-yl)amino)-[1,2,4]triazolo[1,5-a]pyrazin-6-yl)pyrrolidin-1-yl)prop-2-en-1-one]"
3,100 to 1000 nM,"C=CC(=O)N1CCCC(c2cc(Nc3ccn(C)n3)c3ncnn3c2)C1 (centres unmarked) [F.1.21, 1-(3-(8-((1-methyl-1H-pyrazol-3-yl)amino)-[1,2,4]triazolo[1,5-a]pyridin-6-yl)piperidin-1-yl)prop-2-en-1-one]"
4,< 100 nM,"C=CC(=O)N1CCC(c2cn3ncnc3c(Nc3cnn(C)c3)n2)C1 (centres unmarked) [F.1.22, 1-(3-(8-((1-methyl-1H-pyrazol-4-yl)amino)-[1,2,4]triazolo[1,5-a]pyrazin-6-yl)pyrrolidin-1-yl)prop-2-en-1-one]"
5,1000 to 50000 nM,"C=CC(=O)N1CCC(c2cn3ncnc3c(Nc3ccn(C)n3)n2)C1 (centres unmarked) [F.1.23, 1-(3-(8-((1-methyl-1H-pyrazol-3-yl)amino)-[1,2,4]triazolo[1,5-a]pyrazin-6-yl)pyrrolidin-1-yl)prop-2-en-1-one]"
6,< 100 nM,"C=CC(=O)N1CC[C@H](c2cc(Nc3ccn(C)n3)c3ncnn3c2)C1 [F.1.38, (R)-1-(3-(8-((1-methyl-1H-pyrazol-3-yl)amino)-[1,2,4]triazolo[1,5-a]pyridin-6-yl)pyrrolidin-1-yl)prop-2-en-1-one]"
7,< 100 nM,C=CC(=O)N1CC[C@@H](c2cc(Nc3cc4n(n3)CCN(C)C4)c3ncnn3c2)C1 [F.1.39]
8,< 100 nM,C=CC(=O)N1CCC[C@@H](c2cc(Nc3cc4n(n3)CCN(C)C4)c3ncnn3c2)C1 [F.1.40]
9,< 100 nM,"C=CC(=O)N1CCC(c2cc(Nc3cc4n(n3)CCOC4)c3nccn3n2)C1 (centres unmarked) [F.1.41, 1-(3-(8-((6,7-dihydro-4H-pyrazolo[5,1-c][1,4]oxazin-2-yl)amino)imidazo[1,2-b]pyridazin-6-yl)pyrrolidin-1-yl)prop-2-en-1-one]"
10,< 100 nM,C=CC(=O)N1CC(c2cc(Nc3cc4n(n3)CCOC4)c3ncnn3c2)C1 [F.1.42]
11,1000 to 50000 nM,C=CC(=O)N1CC[C@@H](c2cn3ncnc3c(Nc3ccc(OC)c(OC)c3)n2)C1 [F.1.112]
12,100 to 1000 nM,"Cn1ccc(Nc2cc(C3CCN(C#N)C3)cn3ncnc23)n1 (centres unmarked) [I.1, 3-(8-((1-methyl-1H-pyrazol-3-yl)amino)-[1,2,4]triazolo[1,5-a]pyridin-6-yl)pyrrolidine-1-carbonitrile]"
13,100 to 1000 nM,"Cn1ccc(Nc2cc(C3CCCN(C#N)C3)cn3ncnc23)n1 (centres unmarked) [I.1.1, 3-(8-((1-methyl-1H-pyrazol-3-yl)amino)-[1,2,4]triazolo[1,5-a]pyridin-6-yl)piperidine-1-carbonitrile]"
14,100 to 1000 nM,Cn1cc(Nc2nc(C3CCN(C#N)C3)cn3ncnc23)cn1 (centres unmarked) [I.1.2]
15,100 to 1000 nM,"N#CN1CCCC(c2cc(Nc3cc4n(n3)CCOC4)c3ncnn3c2)C1 (centres unmarked) [I.1.3, 3-(8-((6,7-dihydro-4H-pyrazolo[5,1-c][1,4]oxazin-2-yl)amino)-[1,2,4]triazolo[1,5-a]pyridin-6-yl)piperidine-1-carbonitrile]"
16,100 to 1000 nM,"Cn1ccc(Nc2cc([C@H]3CCC[C@H](NC#N)C3)cn3ncnc23)n1 [I.1.4, N—((1S,3S)-3-(8-((1-methyl-1H-pyrazol-3-yl)amino)-[1,2,4]triazolo[1,5-a]pyridin-6-yl)cyclohexyl)cyanamide]"

# Biological target: CSF-1R (Homo sapiens (Human), UniProt P07333)
# Assay: In vitro CSF-1R kinase activity measured by trFRET
# Assay type: biochemical
# Details: recombinant human catalytic domain (aa 538-910), 0.1 mM ATP; read-out: CSF-1R enzyme IC50
# Method: In Vitro CSF-1R Kinase Activity Measured by Time-Resolved Fluorescence Resonance Energy Transfer (trFRET)
# as §1, with “The CSF-1R construct” for “The in-house BTK”, “(aa 538-910),” for “(aa 393-659),”, “was purchased from Invitrogen (cat #PV4092). CSF-1R” for “was expressed in SF9 cells with an N-terminal his tag and purified by immobilized metal affinity chromatography. BTK”, “Biotin-(Ahx)-GAEEEIYAAFFA-COOH, 4” for “Biotin-(Ahx)-GAEEEIYAAFFA-COOH, 0.4”, “mM DTI,” for “mM DTT,”, “and 0.1” for “and 0.01”
# Sequence of CSF-1R (P07333 538-910): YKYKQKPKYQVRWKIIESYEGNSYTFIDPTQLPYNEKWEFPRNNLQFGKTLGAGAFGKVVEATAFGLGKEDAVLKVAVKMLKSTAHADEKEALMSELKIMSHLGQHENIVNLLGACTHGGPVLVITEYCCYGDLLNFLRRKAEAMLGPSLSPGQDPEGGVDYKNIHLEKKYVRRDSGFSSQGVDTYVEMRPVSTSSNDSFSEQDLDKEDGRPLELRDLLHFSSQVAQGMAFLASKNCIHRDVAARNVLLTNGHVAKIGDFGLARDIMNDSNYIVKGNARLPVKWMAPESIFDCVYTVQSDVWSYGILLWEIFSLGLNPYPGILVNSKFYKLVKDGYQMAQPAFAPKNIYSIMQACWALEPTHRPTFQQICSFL
row,IC50,SMILES
1,< 100 nM,"Cn1cc(Nc2nc([C@@H]3CCC[C@@H](O)C3)cn3ncnc23)cn1 (single isomer, unassigned) [Example 10]"
2,< 100 nM,"CC(C)(O)CCn1cc(Nc2nc(C3CCCCC3)cn3ncnc23)cn1 [A.1.1, 4-(4-((6-cyclohexyl-[1,2,4]triazolo[1,5-a]pyrazin-8-yl)amino)-1H-pyrazol-1-yl)-2-methylbutan-2-ol]"
3,< 100 nM,"c1nc2c(Nc3cnn(C4CCOCC4)c3)nc(C3CCCCC3)cn2n1 [A.1.2, 6-cyclohexyl-N-(1-(tetrahydro-2H-pyran-4-yl)-1H-pyrazol-4-yl)-[1,2,4]triazolo[1,5-a]pyrazin-8-amine]"
4,< 100 nM,"c1nc2c(Nc3cnn(C4COC4)c3)nc(C3CCCCC3)cn2n1 [A.1.4, 6-cyclohexyl-N-(1-(oxetan-3-yl)-1H-pyrazol-4-yl)-[1,2,4]triazolo[1,5-a]pyrazin-8-amine]"
5,< 100 nM,"c1nc2c(Nc3cn[nH]c3)nc(C3CCCCC3)cn2n1 [A.1.7, 6-cyclohexyl-N-(1H-pyrazol-4-yl)-[1,2,4]triazolo[1,5-a]pyrazin-8-amine]"
6,< 100 nM,"CCOC(=O)[C@H]1CC[C@@H](n2cc(Nc3nc(C4CCCCC4)cn4ncnc34)cn2)CC1 [A.1.8, cis-ethyl 4-(4-((6-cyclohexyl-[1,2,4]triazolo[1,5-a]pyrazin-8-yl)amino)-1H-pyrazol-1-yl)cyclohexanecarboxylate]"
7,< 100 nM,"c1nc2c(Nc3cnn(C4CCNCC4)c3)nc(C3CCCCC3)cn2n1 [D.1.1, 6-cyclohexyl-N-(1-(piperidin-4-yl)-1H-pyrazol-4-yl)-[1,2,4]triazolo[1,5-a]pyrazin-8-amine]"
8,< 100 nM,"c1nc2c(Nc3cnn(C4CCNCC4)c3)nc(C3CCCC3)cn2n1 [D.1.2, 6-cyclopentyl-N-(1-(piperidin-4-yl)-1H-pyrazol-4-yl)-[1,2,4]triazolo[1,5-a]pyrazin-8-amine]"
9,< 100 nM,"CC(C)n1cc(Nc2nc(C3CCCCC3)cn3ncnc23)cn1 [E.1.1, 6-cyclohexyl-N-(1-isopropyl-1H-pyrazol-4-yl)-[1,2,4]triazolo[1,5-a]pyrazin-8-amine]"
10,< 100 nM,"Cn1cc(Nc2nc(C3CCC(C)(C)CC3)cn3ncnc23)cn1 [E.1.2, 6-(4,4-dimethylcyclohexyl)-N-(1-methyl-1H-pyrazol-4-yl)-[1,2,4]triazolo[1,5-a]pyrazin-8-amine]"
11,< 100 nM,Cn1cc(Nc2nc([C@H]3CC[C@H](C)CC3)cn3ncnc23)cn1 [E.1.3]
12,< 100 nM,Cn1cc(Nc2nc([C@H]3CC[C@@H](C)CC3)cn3ncnc23)cn1 [E.1.4]
13,< 100 nM,"Cn1cc(Nc2nc([C@H]3CC[C@H](C(F)(F)F)CC3)cn3ncnc23)cn1 [E.1.5, N-(1-methyl-1H-pyrazol-4-yl)-6-((1R,4R)-4-(trifluoromethyl)cyclohexyl)-[1,2,4]triazolo[1,5-a]pyrazin-8-amine]"
14,< 100 nM,"c1nc2c(Nc3cc4n(n3)CCOC4)cc(C3CCCCC3)cn2n1 [E.1.6, N-(6-cyclohexyl-[1,2,4]triazolo[1,5-a]pyridin-8-yl)-6,7-dihydro-4H-pyrazolo[5,1-c][1,4]oxazin-2-amine]"
15,< 100 nM,"CN1CCn2nc(Nc3cc(C4CCCCC4)cn4ncnc34)cc2C1 [E.1.7, 6-cyclohexyl-N-(5-methyl-4,5,6,7-tetrahydropyrazolo[1,5-a]pyrazin-2-yl)-[1,2,4]triazolo[1,5-a]pyridin-8-amine]"
16,< 100 nM,"Cn1cc(Nc2nc(C3CCCC3)cn3ncnc23)cn1 [E.1.8, 6-cyclopentyl-N-(1-methyl-1H-pyrazol-4-yl)-[1,2,4]triazolo[1,5-a]pyrazin-8-amine]"
17,< 100 nM,"CN1CCn2nc(Nc3cc(C4CCCC4)cn4ncnc34)cc2C1 [E.1.9, 6-cyclopentyl-N-(5-methyl-4,5,6,7-tetrahydropyrazolo[1,5-a]pyrazin-2-yl)-[1,2,4]triazolo[1,5-a]pyridin-8-amine]"
18,< 100 nM,"Cn1cc(Nc2nc(C3CCCCC3)cn3ncnc23)cn1 [E.1.10, 6-cyclohexyl-N-(1-methyl-1H-pyrazol-4-yl)-[1,2,4]triazolo[1,5-a]pyrazin-8-amine]"
19,< 100 nM,"CC(C)(O)Cn1cc(Nc2nc(C3CCCCC3)cn3ncnc23)cn1 [Example 11, 1-(4-((6-cyclohexyl-[1,2,4]triazolo[1,5-a]pyrazin-8-yl)amino)-1H-pyrazol-1-yl)-2-methylpropan-2-ol]"
